Data published in patent US11261210B2, “Glycosylated antitumor ether lipids as novel cancer stem cell cytotoxic agents” (UNIVERSITY OF MANITOBA, priority 2012, dated 2022).

Columns and labels:
Assay type in all cases: cell-based, human
[1] = system: cancer stem cells; experiment: Tumorsphere formation by freshly sorted cancer stem cells; details: added to freshly sorted cancer stem cells, 10 μM and above, 6 days
Excerpt: Breast cancer stem cell enriched cell population was obtained by staining breast cancer cell lines BT-474 and JIMT-1 for aldehyde dehydrogenase 1 (ALDH1) using the assay kit from Stem Cell Technologies (Vancouver BC, Canada) according to the instructions of the manufacturer with the appropriate controls. BT-474 is a ductal carcinoma cell line (Lasfargues E Y, Coutinho W G, Dion A S (1979) A human breast tumor cell line (BT-474) that supports mouse mammary tumor virus replication. In Vitro 15, 723-729) while JIMT-1 is a carcinoma cell line that is resistant to herceptin (Tanner M, Kapanen A J, Junttila T, Raheem O, Grenman S, Elo J, Elenius K, Isola J (2004). Characterization of a novel cell line established from a patient with herceptin-resistant breast cancer. Mol Cancer Ther 3, 1585-1592). Following the staining, the cells stained for ALDH1 were sorted from the bulk population by flow cytometry on a 4 laser MoFloXPP high speed/pressure cell sorter. The cells were pelleted by centrifugation, resuspended in supplemented Mammocult medium (Stem Cell Technologies) and dispersed into ultra-low adhesive 6-well plates or 35 mm dishes for 7 days to allow the formation of spheroids (mammospheres). After 7 days, the spheres were separated from single cells (dead non-stem cells) by sieving the contents of the well through a […] nylon cell strainer (BD Falcon). The spheres retained in the sieve are washed with Hanks buffer and subsequently trypsinised to obtain a single cell suspension of cancer stem cells. The cell numbers were determined with a Coulter ZM counter and the cells were seeded into the appropriate low adhesion tissue culture ware for various studies.
AEL solutions in ethanol were diluted into supplemented mammocult medium generally at twice the desired final concentration. A volume equal to that in the wells was added to dilute the drug to the desired concentration in each well. Subsequently any further addition of drug to the wells, utilized AEL solution prepared at the desired concentration. […]

[2] = system: BT-474 cancer stem cells; experiment: BT-474 cancer stem cell spheroid formation; details: BT474 cancer stem cells, FIG. 1B
Method: FIG. 1. A. Effect of β-C-Gln (β-AC1) on BT-474 cancer stem cell spheroid formation. BT-474 cancer stem cells were obtained by staining BT474 cells for ALDH1 and sorting the stained from unstained cells by flow cytometry. The ALDH1 stained cells were grown in ultra-low adhesion 6-well plates in mammocult medium for 7 days. The spheroids were isolated and trypsinised to generate single cells. The cells were then seeded for 2 days in ultra-low adhesion 6-well plates, and subsequently incubated in the absence or presence of C-Gln for up to 12 days. The media was replenished after 6 days. B. Effect of β-O-Gln (β-AO1), α-O-Gln (α-AO1), or ET-18-OCH3 on BT-474 cancer stem cell spheroid formation.
Breast cancer stem cell enriched cell population was obtained by staining breast cancer cell lines BT-474 and JIMT-1 for aldehyde dehydrogenase 1 (ALDH1) using the assay kit from Stem Cell Technologies (Vancouver BC, Canada) according to the instructions of the manufacturer with the appropriate controls. […] The cell numbers were determined with a Coulter ZM counter and the cells were seeded into the appropriate low adhesion tissue culture ware for various studies. […]

[3] = system: BT474 cancer stem cells; experiment: Trypan blue dye exclusion viability of BT474 cancer stem cells; details: BT474 cancer stem cells incubated with compound
Method: Trypan blue dye exclusion assay using the TC10 automated cell counter (BioRad) was also used for some studies.
We investigated the effects of the GAELs and the ALPET-18-OCH3 on the ability of the cancer stem cells to form tumorspheres. […] This was a concentration dependent event and at concentrations greater than 10 μM spheroid formation was completely disrupted.

[4] = system: BT-474 stem cell tumorspheres; experiment: Viability of BT-474 stem cell tumorspheres (MTS assay); details: 6 days
Method: FIG. 6. Effect of β-O-Gln, α-O-Gln, β-C-Gln and ET-18-OCH3 on the viability of BT-474 stem cell tumorspheres. BT-474 cancer stem cells were grown for 7 days in ultra low adhesion 6 well plates. The tumorspheres formed were harvested, trypsinised and cell numbers were determined. Equal numbers of cells were dispersed into 48-well plates in mammocult medium and incubation was under static conditions. Wells with only medium but no cells were treated in an identical manner to serve as blanks. After spheres were formed, β-O-Gln, α-O-Gln, β-C-Gln or ET-18-OCH3 (0, 10, 20, 30 μM) were added and incubation was for a total of 6 days. At the end of the incubation, the MTS reagent was added to each well and the plates were rotated on a Nutator mixer in a 5% CO2 incubator for 4 h. The absorbance of each well was read at 470 nm. The results are the means±standard deviation of 4 independent determinations.
Cell viability assay: Cell viability was determined by the Cell Titre 96 Aqueous One solution proliferation assay ((MTS assay; Promega) according to the instructions of the manufacturer.
The viability of the material at the end of the incubation was determined using the MTS assay. […] In cells incubated with 10 μM of β-C-Gln, 90% of the cells were not viable. […] In contrast, in experiments with ET-18-OCH3, 10 or 20 μM ET-18-OCH3 had little effect on the viability of BT-474 spheroids and at a concentration of 30 μM viability was around 45% relative to controls. The results of the integrity studies correlate well with the viability studies.
We also investigated the effect of α-O-Galn, β-O-Galn or α-O-Mann on the viability of BT-474 spheroids. The spheroids were incubated with the compounds for 6 days and the viability was assessed by the MTS assay. […] Viability was down to around 10% at 10 μM concentration of the compound. […] At a concentration of 30 μM a significant proportion (26-32%) of the BT-474 cancer stem cells were still viable. The cytotoxic efficacy of GAELs is dependent on the type of sugar moiety and the anomeric form in some instances.

[5] = system: JIMT-1 stem cell spheroids; experiment: Morphology of JIMT-1 stem cell spheroids
Method: FIG. 7. A. Effect of β-O-Gln, β-C-Gln or ET-18-OCH3 on morphology of JIMT-1 stem cell spheroids. B. Effect of β-O-Gln, α-O-Gln or ET-18-OCH3 on morphology of JIMT-1 stem cell spheroids. JIMT-1 cancer stem cells were grown for 7 days in ultra low adhesion 6 well plates. The tumorspheres formed were harvested, trypsinised and cell numbers were determined. Equal numbers of cells were dispersed into 48-well non-treated plates in mammocult medium and incubated in a CO2 incubator under static conditions. After spheres were formed, O-Gln, C-Gln or ET-18-OCH3 were added (0, 10, 20 and 30 μM) and incubation was for a total of 6 days with media supplementation after 3 days. Images for FIG. 7A were taken at day 0 and after 72 h following addition of the compounds. Images for FIG. 7B were taken after 6 days incubation with the compounds.
The above studies were repeated with JIMT-1 spheroids.

CCCCCCCCCCCCCCCCOC[C@H](CO[C@@H]1O[C@H](CO)[C@@H](O)[C@H](O)[C@H]1N)OC [β-O-Gln, 1-O-hexadecyl-2-O-methyl-3-O-(2′-amino-2′-deoxy-β-D-glucopyranosyl)-sn-glycerol]
spheroid formation [1]: unable to form spheroids
spheroid formation [2]: unable to form spheroids
viability (trypan dye exclusion) [3]: not viable
loss of viability ([4]; 10 μM): about 60%
loss of viability ([4]; 20 or 30 μM): total loss of viability
spheroid morphology and compactness ([5]; 10-30 μM, after 3 days, FIG. 7A): profound effect on the morphology and compactness
spheroid integrity ([5]; 6 days, FIG. 7B): complete disintegration of the spheroids
